The test system of the experiment is HIV-1 single-round infectious reporter virus. Nature of the experiment: Single-round infectious HIV-1 reporter virus (luciferase) infection of HeLa CD4 cells. The experiment is classed as cell-based. The settings on record: Human immunodeficiency virus 1, HeLa, 72 h, read-out: EC50 Group from Table 1. The method, then: • Virus production—Human embryonic Kidney cell line, 293T, was propagated in Dulbecco's Modified Eagle Medium (Invitrogen, Carlsbad, Calif.) containing 10% fetal Bovine serum (FBS, Sigma, St. Louis, Mo.). • Virus infection-Human epithelial cell line, HeLa, expressing the HIV-1 receptor CD4 was propagated in Dulbecco's Modified Eagle Medium (Invitrogen, Carlsbad, Calif.) containing 10% fetal Bovine serum (FBS, Sigma, St. Louis, Mo.) and supplemented with 0.2 mg/mL Geneticin (Invitrogen, Carlsbad, Calif.). • Virus-Single-round infectious reporter virus was produced by co-transfecting human embryonic Kidney 293 cells with an HIV-1 envelope DNA expression vector and a proviral cDNA containing an envelope deletion mutation and the luciferase reporter gene inserted in place of HIV-1 nef sequences (Chen et al, Ref. 41). Transfections were performed using lipofectAMINE PLUS reagent as described by the manufacturer (Invitrogen, Carlsbad, Calif.). Experiment: • HeLa CD4 cells were plated in 96 well plates at a cell density of 1×10^4 cells per well in 100 μl Dulbecco's Modified Eagle Medium containing 10% fetal Bovine serum and incubated overnight. • Compound was added in a 2 μl dimethylsulfoxide solution, so that the final assay concentration would be ≦10 μM. • 100 μl of single-round infectious reporter virus in Dulbecco's Modified Eagle Medium was then added to the plated cells and compound at an approximate multiplicity of infection (MOI) of 0.01, resulting in a final volume of 200 μl per well. • Virally-infected cells were incubated at 37 degrees Celsius, in a CO2 incubator, and harvested 72 h after infection. • Viral infection was monitored by measuring luciferase expression from viral DNA in the infected cells using a luciferase reporter gene assay kit, as described by the manufacturer (Roche Molecular Biochemicals, Indianapolis, Ind.). Infected cell supernatants were removed and 50 μl of lysis buffer was added per well. After 15 minutes, 50 μl of freshly-reconstituted luciferase assay reagent was added per well. Luciferase activity was then quantified by measuring luminescence using a Wallac microbeta scintillation counter. • The percent inhibition for each compound was calculated by quantifying the level of luciferase expression in cells infected in the presence of each compound as a percentage of that observed for cells infected in the absence of compound and subtracting such a determined value from 100. • An EC50 provides a method for comparing the antiviral potency of the compounds of this disclosure. The effective concentration for fifty percent inhibition (EC50) was calculated with the Microsoft Excel Xlfit curve fitting software. For each compound, curves were generated from percent inhibition calculated at 10 different concentrations by using a four paramenter logistic model (model 205). Table 1 is the key for the data in Table 2.
As usually defined, the EC50 is the concentration that produces a half-maximal response. With `COC(=O)c1ccc(OC(C)C(=O)N2CCC(=C(c3ccccc3)c3cccnc3)CC2)c(OC)c1` (centres unmarked), the EC50 is over 1 µM. As for `COC(=O)c1ccc(OC(C)C(=O)N2CCC(=C(C#N)c3ccccc3)CC2C)c(OC)c1` (centres unmarked), the figure is under 1 µM; as for `Cc1nnc(C(=C2CCN(C(=O)C(C)Oc3cccc4ncccc34)CC2)c2ccccc2)o1` (centres unmarked), over 1 µM. Under `CC(Oc1cccc2ncccc12)C(=O)N1CCC(=C(c2ccccc2)c2ccccc2)CC1` (centres unmarked) stands over 1 µM. Consider `CC(Oc1cccc2cccnc12)C(=O)N1CCC(=C(C#N)c2ccccc2)CC1` (centres unmarked), for which the EC50 was under 1 µM.

With `CC(Oc1cccc2ncccc12)C(=O)N1CCC(=C(c2ccccc2)c2cccnc2)CC1` (centres unmarked), the concentration giving a half-maximal response (EC50) was over 1 µM. As for `COC(=O)c1ccc(OC(C)C(=O)N2CCC(=C(C#N)c3ccccc3)CC2)c(OC)c1` (centres unmarked), the figure is under 1 µM; as for `COC(=O)c1ccc(OC(C)C(=O)N2CCC(=C(c3ccccc3)c3nnc(C)o3)CC2)c(OC)c1` (centres unmarked), under 1 µM; as for `COC(=O)c1ccc(OC(C)C(=O)N2CCC(=C(c3ccccc3)c3ccccc3)CC2)c(OC)c1` (centres unmarked), under 1 µM.

Take `CC(Oc1cccc2ncccc12)C(=O)N1CCC(=C(C#N)c2ccccc2)CC1C` (centres unmarked): the EC50 is under 1 µM. As for `CC(Oc1cccc2ncccc12)C(=O)N1CCC(=C(C#N)c2ccccc2)CC1` (centres unmarked), the figure is under 1 µM.

(Values after patent US7745463B2, “Alkene piperidine derivatives as antiviral agents” (priority 2006, dated 2010).)
